Measured values published in patent US20050100519A1, “Topical L-carnitine compositions” (Lonza Inc., priority 2003, published 2005).
“Also recorded” adds a separate entry of the source.

Legend:
[1] = test system: skin; experiment: Exfoliating efficacy of topical creams by the dansyl chloride method (skin turnover time); format: in vivo, human
Description: The exfoliating efficacy of topical L-carnitine compositions of varying pH was determined as follows. L-carnitine containing reparative/exfoliating creams with a UV sunscreen were prepared as described in Example 2, except (1) phase B included 10.00% urea, 3.0% Natrulon® H-10, and 45.50% deionized water, (2) phase C included (a) 5.6% L-carnitine, (b) q,s. of sodium hydroxide and hydrochloric acid to adjust the pH of the cream to 4, 5, 6, or 7, and (c) 20.1% deionized water.
Each topical composition (creams) was tested as follows. The composition was applied twice daily to skin (approximately 0.2 g/10 cm^2) over a period of 20 days, and the exfoliation was measured using the dansyl chloride method.
The dansyl chloride method is a method of measuring skin turnover time. The method involves first treating the skin with a fluorescent dye (namely, dansyl chloride) and then, with the aid of a UV light, observing the disappearance of the fluorescence over time. When the site no longer fluoresces, the skin is considered to have turned over.
The exfoliating efficacy of the glycolic acid cream was compared to that of the L-carnitine creams at pH 4 and pH 7 described in Example 7 by the procedure described in Example 7.
The exfoliating efficacy of topical compositions (all at pH 7) containing 2.8% or 5.6% L-carnitine or 2.8% or 5.6% racemic (DL) carnitine was determined by the method described in Example 7. The 5.6% L-carnitine composition tested was that described in Example 7. The 5.6% DL-carnitine composition was prepared as described in Example 7, replacing the 5.6% L-carnitine with 5.6% DL-carnitine. The 2.8% L-carnitine and 2.8% DL-carnitine compositions were prepared as described in Example 7, replacing the 5.6% L-carnitine with (1) 2.8% L-carnitine and 2.8% DL-carnitine, respectively, and (2) 2.8% deionized water. DL-carntine is a racemic mixture containing 50% L-carnitine and 50% D-carnitine.
The exfoliating efficacy of topical compositions including (1) papain, (2) 5.6% L-carnitine, (3) 5.6% glycolic acid, or (4) papain with 5.6% L-carnitine was determined as follows.
The compositions were tested by the procedure described in Example 7.

[2] = test system: skin; experiment: Moisturizing efficacy: water content of the skin measured with a corneometer; format: in vivo, human; details: 5% in cream
Description: Each composition was applied twice daily to skin (0.2 g/10 cm^2) over a period of 10 days, and the water content of the skin was measured with a corneometer. Untreated skin was also tested as a control.

Compound | exfoliating efficacy compared with racemic (DL) carnitine ([1]; 2.8% or 5.6% creams, all at pH 7 (FIG. 3)) | exfoliating efficacy, effect of composition pH ([1]; 5.6% L-carnitine cream at pH 4, 5, 6 or 7, applied twice daily over 20 days (FIG. 1)) | exfoliating efficacy compared with glycolic acid ([1]; L-carnitine cream, alone or with papain, vs 5.6% glycolic acid cream pH 4.0 (FIG. 2, FIG. 4)) | ability to exfoliate and reduce the time needed for skin turnover ([1]; pH 4-7) | Water content of the skin after 1 day of treatment ([2]; twice daily 0.2 g/10 cm^2, 1 day) [%] | Water content of the skin after 2 days of treatment ([2]; twice daily 0.2 g/10 cm^2, 2 days) [%] | Water content of the skin after 3 days of treatment ([2]; twice daily 0.2 g/10 cm^2, 3 days) [%] | Water content of the skin after 6 days of treatment ([2]; twice daily 0.2 g/10 cm^2, 6 days) [%] | Water content of the skin after 8 days of treatment ([2]; twice daily 0.2 g/10 cm^2, 8 days) [%] | Water content of the skin after 9 days of treatment ([2]; twice daily 0.2 g/10 cm^2, 9 days) [%] | Water content of the skin after 10 days of treatment ([2]; twice daily 0.2 g/10 cm^2, 10 days) [%]
C[N+](C)(C)C[C@H](O)CC(=O)[O-] [L-carnitine] | more effective as an exfoliant than racemic carnitine at the same concentration; also recorded: exfoliates skin more effectively and faster than racemic carnitine | most effective at the optimal pH for enzymes, i.e., at a pH around 7; also recorded: exfoliates skin more effectively and faster in a topical composition at a pH of 7 than a similar composition at a pH of 4, 5, or 6 | exfoliates skin more effectively and faster than glycolic acid | exhibits the ability to exfoliate and to significantly reduce the time needed for skin turnover |  |  |  |  |  |  | 
decaglycerol |  |  |  |  | 44.4 | 54.2 | 56.9 | 53.0 | 59.2 | 62.8 | 60.5
